Experimental data as given in ChEMBL document CHEMBL1152085, “Novel 3-deoxy-3-descladinosyl-6-O-methyl erythromycin a analogues. Synthesis and in vitro activity” (1997).
Converted amounts (≈) assume the structure as drawn.

Columns and labels:
Type in all cases: functional
[1] = system: Enterococcus faecium; assay: Tested in vitro for minimum inhibitory concentration to produce antibacterial activity against Enterococcus faecium ATCC 8043
[2] = system: Enterococcus faecium; assay: Tested in vitro for minimum inhibitory concentration to produce antibacterial activity against Enterococcus faecium ATCC 8043 in presence of erythromycin A
[3] = system: Escherichia coli; assay: Tested in vitro for minimum inhibitory concentration to produce antibacterial activity against Escherichia coli JUHL
[4] = system: Escherichia coli; assay: Tested in vitro for minimum inhibitory concentration to produce antibacterial activity against Escherichia coli JUHL in presence of erythromycin A
[5] = system: Escherichia coli; assay: Tested in vitro for minimum inhibitory concentration to produce antibacterial activity against Escherichia coli SS
[6] = system: Escherichia coli; assay: Tested in vitro for minimum inhibitory concentration to produce antibacterial activity against Escherichia coli SS in presence of erythromycin A
[7] = system: Staphylococcus epidermidis; assay: Tested in vitro for minimum inhibitory concentration to produce antibacterial activity against Staphylococcus epidermidis 3519
[8] = system: Staphylococcus epidermidis; assay: Tested in vitro for minimum inhibitory concentration to produce antibacterial activity against Staphylococcus epidermidis 3519 in presence of erythromycin A
[9] = system: Streptococcus pyogenes; assay: Tested in vitro for minimum inhibitory concentration to produce antibacterial activity against Streptococcus pyogenes EES61
[10] = system: Streptococcus pyogenes; assay: Tested in vitro for minimum inhibitory concentration to produce antibacterial activity against Streptococcus pyogenes EES61 in presence of erythromycin A
[11] = system: Streptococcus pyogenes; assay: Tested in vitro for minimum inhibitory concentration to produce antibacterial activity against Streptococcus pyogenes PIU 2548
[12] = system: Streptococcus pyogenes; assay: Tested in vitro for minimum inhibitory concentration to produce antibacterial activity against Streptococcus pyogenes PIU 2548 in presence of erythromycin A
[13] = system: Streptococcus agalactiae; assay: Tested in vitro for minimum inhibitory concentration to produce antibacterial activity against Streptococcus agalactiae CMX 508
[14] = system: Streptococcus agalactiae; assay: Tested in vitro for minimum inhibitory concentration to produce antibacterial activity against Streptococcus agalactiae CMX 508 in presence of erythromycin A
[15] = system: Staphylococcus aureus; assay: Tested in vitro for minimum inhibitory concentration to produce antibacterial activity against Staphylococcus aureus 1775
[16] = system: Staphylococcus aureus; assay: Tested in vitro for minimum inhibitory concentration to produce antibacterial activity against Staphylococcus aureus 1775 in presence of erythromycin A
[17] = system: Staphylococcus aureus; assay: Tested in vitro for minimum inhibitory concentration to produce antibacterial activity against Staphylococcus aureus A-5278
[18] = system: Staphylococcus aureus; assay: Tested in vitro for minimum inhibitory concentration to produce antibacterial activity against Staphylococcus aureus A-5278 in presence of erythromycin A
[19] = system: Staphylococcus aureus; assay: Tested in vitro for minimum inhibitory concentration to produce antibacterial activity against Staphylococcus aureus A5177
[20] = system: Staphylococcus aureus; assay: Tested in vitro for minimum inhibitory concentration to produce antibacterial activity against Staphylococcus aureus A5177 in presence of erythromycin A
[21] = system: Staphylococcus aureus; assay: Tested in vitro for minimum inhibitory concentration to produce antibacterial activity against Staphylococcus aureus ATCC 6538P
[22] = system: Staphylococcus aureus; assay: Tested in vitro for minimum inhibitory concentration to produce antibacterial activity against Staphylococcus aureus ATCC 6538P in presence of erythromycin A
[23] = system: Staphylococcus aureus; assay: Tested in vitro for minimum inhibitory concentration to produce antibacterial activity against Staphylococcus aureus CMX 553
[24] = system: Staphylococcus aureus; assay: Tested in vitro for minimum inhibitory concentration to produce antibacterial activity against Staphylococcus aureus CMX 553 in presence of erythromycin A
[25] = system: Staphylococcus aureus; assay: Tested in vitro for minimum inhibitory concentration to produce antibacterial activity against Staphylococcus aureus CMX 642A
[26] = system: Staphylococcus aureus; assay: Tested in vitro for minimum inhibitory concentration to produce antibacterial activity against Staphylococcus aureus CMX 642A in presence of erythromycin A
[27] = system: Streptococcus equinus; assay: Tested in vitro for minimum inhibitory concentration to produce antibacterial activity against Streptococcus bovis A-5169
[28] = system: Streptococcus equinus; assay: Tested in vitro for minimum inhibitory concentration to produce antibacterial activity against Streptococcus bovis A-5169 in presence of erythromycin A
[29] = system: Staphylococcus aureus; assay: Tested in vitro for minimum inhibitory concentration to produce antibacterial activity against Staphylococcus aureus NCTC-10649M
[30] = system: Staphylococcus aureus; assay: Tested in vitro for minimum inhibitory concentration to produce antibacterial activity against Staphylococcus aureus NCTC-10649M in presence of erythromycin A
[31] = system: Streptococcus pyogenes; assay: Tested in vitro for minimum inhibitory concentration to produce antibacterial activity against Streptococcus pyogenes 930
[32] = system: Streptococcus pyogenes; assay: Tested in vitro for minimum inhibitory concentration to produce antibacterial activity against Streptococcus pyogenes 930 in presence of erythromycin A

Row | MIC [1] | MIC [2] | MIC [7] | MIC [8] | MIC [9] | MIC [10] | MIC [11] | MIC [12] | MIC [13] | MIC [14] | MIC [15] | MIC [16] | MIC [17] | MIC [18] | MIC [19] | MIC [20] | MIC [21] | MIC [22] | MIC [23] | MIC [24] | Structure (SMILES) | further results
1 | 0.39 µg/mL (≈ 0.534 µM) | 0.1 µg/mL | 1.56 µg/mL (≈ 2.13 µM) | 0.39 µg/mL | 0.05 µg/mL (≈ 0.0684 µM) | 0.02 µg/mL | 0.2 µg/mL (≈ 0.274 µM) | 6.2 µg/mL | 0.1 µg/mL (≈ 0.137 µM) | 0.02 µg/mL | 50 µg/mL (≈ 68.4 µM) | > 100 µg/mL | 50 µg/mL (≈ 68.4 µM) | > 100 µg/mL | 1.56 µg/mL (≈ 2.13 µM) | 25 µg/mL | 1.56 µg/mL (≈ 2.13 µM) | 0.39 µg/mL | 1.56 µg/mL (≈ 2.13 µM) | 0.39 µg/mL | CC[C@H]1OC(=O)[C@H](C)C[C@H](C)[C@@H](O[C@@H]2O[C@H](C)C[C@H](N(C)C)[C@H]2O)[C@](C)(OC)C[C@@H](C)C(=O)[C@H](C)[C@H]2N(CCCCc3ccccc3)C(=O)O[C@]12C | MIC [3]: > 100 µg/mL; MIC [4]: 100 µg/mL; MIC [5]: 1.56 µg/mL (≈ 2.13 µM); MIC [6]: 0.39 µg/mL; MIC [25]: 1.56 µg/mL (≈ 2.13 µM); MIC [26]: 0.39 µg/mL; MIC [27]: 0.02 µg/mL (≈ 0.0274 µM); MIC [28]: 0.02 µg/mL; MIC [29]: 1.56 µg/mL (≈ 2.13 µM); MIC [30]: 0.39 µg/mL
2 | 0.2 µg/mL (≈ 0.34 µM) | 0.05 µg/mL | 0.39 µg/mL (≈ 0.664 µM) | 0.2 µg/mL | 0.1 µg/mL (≈ 0.17 µM) | 0.05 µg/mL | 0.3 µg/mL (≈ 0.51 µM) | 3.1 µg/mL | 0.2 µg/mL (≈ 0.34 µM) | 0.05 µg/mL | > 100 µg/mL | > 100 µg/mL | > 100 µg/mL | > 100 µg/mL | 0.2 µg/mL (≈ 0.34 µM) | 1.56 µg/mL | 0.2 µg/mL (≈ 0.34 µM) | 0.2 µg/mL | 0.2 µg/mL (≈ 0.34 µM) | 0.2 µg/mL | CC[C@H]1OC(=O)[C@H](C)C(=O)[C@H](C)[C@@H](O[C@@H]2O[C@H](C)C[C@H](N(C)C)[C@H]2O)[C@](C)(OC)C[C@@H](C)C(=O)[C@H](C)[C@@H](O)[C@]1(C)O | MIC [3]: > 100 µg/mL; MIC [4]: 50 µg/mL; MIC [5]: 0.39 µg/mL (≈ 0.664 µM); MIC [6]: 0.2 µg/mL; MIC [31]: > 100 µg/mL; MIC [32]: > 100 µg/mL; MIC [25]: 0.39 µg/mL (≈ 0.664 µM); MIC [26]: 0.2 µg/mL; MIC [27]: 0.05 µg/mL (≈ 0.0851 µM); MIC [28]: 0.02 µg/mL; MIC [29]: 0.1 µg/mL (≈ 0.17 µM); MIC [30]: 0.2 µg/mL
3 | 1.56 µg/mL (≈ 1.96 µM) | 0.05 µg/mL | 12.5 µg/mL (≈ 15.7 µM) | 0.39 µg/mL | 1.56 µg/mL (≈ 1.96 µM) | 0.02 µg/mL | 3.1 µg/mL (≈ 3.9 µM) | 6.2 µg/mL | 1.56 µg/mL (≈ 1.96 µM) | 0.05 µg/mL | 25 µg/mL (≈ 31.4 µM) | > 100 µg/mL | 25 µg/mL (≈ 31.4 µM) | > 100 µg/mL | 6.2 µg/mL (≈ 7.8 µM) | 12.5 µg/mL | 12.5 µg/mL (≈ 15.7 µM) | 0.39 µg/mL | 6.2 µg/mL (≈ 7.8 µM) | 0.39 µg/mL | CC[C@H]1OC(=O)[C@H](C)C[C@H](C)[C@@H](O[C@@H]2O[C@H](C)C[C@H](N(C)C)[C@H]2O)[C@](C)(OC)C[C@@H](C)C(=O)[C@H](C)[C@H]2N(CCc3ccc(Oc4ccccc4)cc3)C(=O)O[C@]12C | MIC [31]: 6.2 µg/mL (≈ 7.8 µM); MIC [32]: > 100 µg/mL; MIC [25]: 12.5 µg/mL (≈ 15.7 µM); MIC [26]: 0.39 µg/mL; MIC [27]: 1.56 µg/mL (≈ 1.96 µM); MIC [28]: 0.05 µg/mL; MIC [29]: 6.2 µg/mL (≈ 7.8 µM); MIC [30]: 0.39 µg/mL
4 | 0.78 µg/mL (≈ 1.25 µM) | 0.05 µg/mL | 12.5 µg/mL (≈ 20 µM) | 0.39 µg/mL | 0.39 µg/mL (≈ 0.625 µM) | 0.02 µg/mL | 0.78 µg/mL (≈ 1.25 µM) | 6.2 µg/mL | 0.39 µg/mL (≈ 0.625 µM) | 0.05 µg/mL | > 100 µg/mL | > 100 µg/mL | > 100 µg/mL | > 100 µg/mL | 6.2 µg/mL (≈ 9.94 µM) | 12.5 µg/mL | 6.2 µg/mL (≈ 9.94 µM) | 0.39 µg/mL | 6.2 µg/mL (≈ 9.94 µM) | 0.39 µg/mL | CC[C@H]1OC(=O)[C@H](C)C[C@H](C)[C@@H](O[C@@H]2O[C@H](C)C[C@H](N(C)C)[C@H]2O)[C@](C)(OC)C[C@@H](C)C2=NCCN3C(=O)O[C@@]1(C)[C@H]3[C@H]2C | MIC [31]: > 100 µg/mL; MIC [32]: > 100 µg/mL; MIC [25]: 6.2 µg/mL (≈ 9.94 µM); MIC [26]: 0.39 µg/mL; MIC [27]: 0.39 µg/mL (≈ 0.625 µM); MIC [28]: 0.05 µg/mL; MIC [29]: 6.2 µg/mL (≈ 9.94 µM); MIC [30]: 0.39 µg/mL
